# Laboratory results: patent US8431706B2, “1,2,3,4-tetrahydroqinoline derivative useful for the treatment of diabetes” (Eli Lilly and Company, priority 2011, dated 2013)
# Columns and labels:
# human GPR40 = human GPR40 (Homo sapiens, UniProt O14842); settings: maximal response compared to the natural ligand, linoleic acid
# PPARγ = biological target: T1, PPARγ (Homo sapiens, UniProt P37231); assay: PPARγ reporter functional assay in CV1 cells; assay type: cell-based; settings: examined up to 10 μM; luciferase reporter; 24 hours
# T1 sequence (P37231 1-505): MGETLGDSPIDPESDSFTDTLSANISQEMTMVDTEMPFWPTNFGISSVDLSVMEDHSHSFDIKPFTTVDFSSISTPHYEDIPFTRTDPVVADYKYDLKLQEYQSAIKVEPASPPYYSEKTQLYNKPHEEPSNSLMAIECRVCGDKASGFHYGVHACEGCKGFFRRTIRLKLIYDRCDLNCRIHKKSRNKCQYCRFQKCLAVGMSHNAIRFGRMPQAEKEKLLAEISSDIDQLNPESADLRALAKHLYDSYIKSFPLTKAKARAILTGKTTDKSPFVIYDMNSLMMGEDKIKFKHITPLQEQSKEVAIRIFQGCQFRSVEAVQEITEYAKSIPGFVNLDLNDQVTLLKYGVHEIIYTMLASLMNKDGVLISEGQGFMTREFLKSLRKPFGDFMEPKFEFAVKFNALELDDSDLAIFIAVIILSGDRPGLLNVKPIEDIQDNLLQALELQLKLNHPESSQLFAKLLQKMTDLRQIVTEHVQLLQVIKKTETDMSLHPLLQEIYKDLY
# T1 sequence (P19793 1-462 partner): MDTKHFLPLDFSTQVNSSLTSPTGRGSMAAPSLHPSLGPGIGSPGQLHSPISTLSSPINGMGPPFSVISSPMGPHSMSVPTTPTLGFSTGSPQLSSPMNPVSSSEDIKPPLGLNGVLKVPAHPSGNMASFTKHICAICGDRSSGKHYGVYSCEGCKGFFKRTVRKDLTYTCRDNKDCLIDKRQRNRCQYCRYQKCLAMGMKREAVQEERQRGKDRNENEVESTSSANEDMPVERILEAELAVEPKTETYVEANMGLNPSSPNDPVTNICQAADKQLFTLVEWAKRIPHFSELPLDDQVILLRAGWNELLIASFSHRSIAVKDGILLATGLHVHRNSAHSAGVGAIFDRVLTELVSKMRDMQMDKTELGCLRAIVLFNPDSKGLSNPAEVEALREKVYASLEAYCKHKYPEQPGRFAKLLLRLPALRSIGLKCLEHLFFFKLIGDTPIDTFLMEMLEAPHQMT
# Text: (§1) Gal4 PPARα, Gal4 PPARδ, and PPARγ reporter functional assays are also used to monitor the selectivity of the exemplified compound. CV1 cells, which are derived from the renal tissue of an African green monkey, are transfected with various receptor and reporter plasmids using Fugene. For the Gal4 PPARα and PPARδ assays, a reporter plasmid containing five tandem copies of the yeast transcription protein Gal4 response element, cloned upstream of a firefly luciferase gene driven by the major late promoter of adenovirus, is transfected together with a Simian Virus 40 (SV40) driven plasmid constitutively expressing a hybrid protein containing the Gal4 DNA binding domain (DBD), and either the PPARα or PPARδ ligand binding. For the PPARγ assay, plasmids encoding PPARγ and RXRα, both driven by a cytomegalovirus (CMV) promoter are transfected together with a plasmid containing luciferase reporter cDNA driven by the TK promoter and a receptor response element (2×PPRE). Cells are transfected in T225 cm^2 cell culture flasks in DMEM media with 5% charcoal-stripped FBS. […] After 24 hours incubation with the compound, cells are lysed and luciferase activity is determined as a measure of receptor activation by luminescence. […] The maximum percent stimulation is determined versus maximum stimulation obtained with 10 μM of an appropriate PPAR agonist reference compound. […]
# Gal4 PPARα = biological target: T2, Gal4 PPARα (Homo sapiens, UniProt Q07869); assay: Gal4 PPARα reporter functional assay in CV1 cells; assay type: cell-based; settings: examined up to 10 μM; luciferase reporter; 24 hours
# T2 construct: expressed in transfected cells; host or cells: CV1 (African green monkey kidney)
# T2 sequence (Q07869 239-466 limits assumed): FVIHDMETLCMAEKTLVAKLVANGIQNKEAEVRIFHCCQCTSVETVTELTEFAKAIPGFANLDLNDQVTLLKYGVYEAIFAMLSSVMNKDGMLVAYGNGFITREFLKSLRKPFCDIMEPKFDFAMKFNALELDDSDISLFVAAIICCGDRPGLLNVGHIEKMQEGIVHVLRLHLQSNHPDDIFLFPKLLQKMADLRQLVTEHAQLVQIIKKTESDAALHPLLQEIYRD
# Text: as §1
# Male Balb/c mice = assay: Intraperitoneal Glucose Tolerance Test (IPGTT); assay type: in vivo, mouse
# Procedure: To examine the ability of exemplified the compound to activate GPR40 in-vivo resulting in anti-diabetic efficacy, i.e. reduction in plasma glucose levels, a 4-day intraperitoneal glucose tolerance test (ipGTT) study is completed, and the data is shown for the compound tested below.
# Male Balb/c (Albino mice) mice (8-9 weeks of age) are single housed, and fed with normal rodent chow diet and water ad libitum. Animals are weighed; randomized by body weight; and their daily body weights are recorded Animals are dosed once per day orally for three days using a formulation carrying methylcellulose and tween-80. On the night before Day 4, animals are fasted overnight. On the morning of Day 4, animals are dosed orally with compound or vehicle alone 60 minutes prior to the glucose tolerance test (glucose 2 g/kg, i.p.). Blood glucose levels are determined from tail bleeds taken at 0, 3, 7, 15, 30, and 60 min after glucose challenge. The blood glucose excursion profile from t=0 to t=60 min is used to integrate an area under the curve (AUC) for each treatment. Percent lowering in glucose is calculated from the AUC data of the compound with respect to the AUC of vehicle group. The test compound is orally administered at 0.3, 1.0, 3.0, 10, or 30 mg/kg, and a positive control (3-[4-(2-methyl-benzyloxy)-phenyl]-hex-4-ynoic acid, see WO2005086661.) is administered at 10 mg/kg. […] Glucose levels are lowered at the 15, 30, and 60 minute time points for the positive control. The ED50 for this compound based on AUCs for glucose lowering is 1.0 mg/kg.
# Sequence of human GPR40 (O14842 whole entry): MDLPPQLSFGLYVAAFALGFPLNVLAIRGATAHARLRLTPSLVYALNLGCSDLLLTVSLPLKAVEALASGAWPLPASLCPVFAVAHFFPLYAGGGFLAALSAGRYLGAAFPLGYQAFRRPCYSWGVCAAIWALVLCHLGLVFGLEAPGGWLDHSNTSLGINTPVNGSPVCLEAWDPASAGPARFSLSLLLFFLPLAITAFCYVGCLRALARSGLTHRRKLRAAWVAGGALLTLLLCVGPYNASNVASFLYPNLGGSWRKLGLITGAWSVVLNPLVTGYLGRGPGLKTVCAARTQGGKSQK
smiles,measurement,setting,value
"CC#C[C@@H](CC(=O)O)c1ccc(OCc2ccc(CN3CCCc4cccc(OC)c43)s2)cc1 [Example 1, (3S)-3-[4-[[5-[(8-Methoxy-3,4-dihydro-2H-quinolin-1-yl)methyl]-2-thienyl]methoxy]phenyl]hex-4-ynoic acid]",Percent efficacy,human GPR40,84+/−24%
same,functional activation of PPARγ,PPARγ,No functional activation
same,functional activation of PPARα,Gal4 PPARα,No functional activation
same,"Glucose levels compared to vehicle control, 30 and 60 minute time points","Male Balb/c mice; 1.0, 3.0, 10 and 30 mg/kg oral doses",significantly lowered
same,"Glucose levels compared to vehicle control, 15 minute time point","Male Balb/c mice; 3, 10 and 30 mg/kg oral doses",significantly lowered
same,ED50,"Male Balb/c mice; Mus musculus, oral, once per day, 4 days, glucose 2 g/kg i.p., AUC t=0 to 60 min, read-out: ED50 based on AUCs for glucose lowering",1 mg/kg
